The test system of test [1] is potatoes of the variety Bintje. In words: Fogging trial in potato storage cabins, sprout index (PCA scale). The test is classed as in vivo, Solanum tuberosum. Conditions: fogging every 3 weeks during storage, PCA scale 1-9. The method, then:
The storage system was designed to duplicate a large commercial storage facility in miniature. It consisted of 4 test cabins, with room for 4 boxes per level. In total there were 7 levels, and the boxes were placed in a stair-pattern, in clock-wise direction. Each cabin could be used to store up to 560 kg of potatoes per cabin. The dimensions of a cabin are depicted in FIG. 1.
During storage the air temperature within the storage system was kept between 5.0° C. and 9.5° C. The relative humidity was kept between 87% and 100%.
The application equipment used for hot fogging was IGEBA TF-35. The application equipment used for cold fogging was VEUGEN, type: FOGCOL. The operation pressure was 3.3 bar. […]
Around 15 minutes before treatment, Automatic Regulation was switched off and Manual Internal Ventilation was switched on (Force III). […] Note: Ventilation Force III means ˜900 m^3/h. • As the exact weight of tubers in the cell was known, the exact quantity of formulated product was calculated and prepared. • During spraying/fogging and till around 15 minutes after spraying, Internal • Ventilation was kept switched on (Force III) to assure a good contact between product and tubers. • Around 15 minutes after spraying, Internal Ventilation was switched off • The day after (minimum 12 hours after end of spraying) Automatic Regulation was switched on till next application or till end of trial […]

The test system of another test is potatoes. Conditions: hot fogging; cited from earlier work.

Molecules are shown by their SMILES.

For `C=C(C)C1CC=C(C)CC1` (centres unmarked) [Limonene, 1-methyl-4-(1-methylethenyl)-cyclohexene], the “sprout growth (sprout index, FIG. 2)” value in test [1] was “did not have any effect on sprout growth”.

In the case of `C=C(C)C1CC=C(C)C(=O)C1` (centres unmarked) [carvone], the “anti-sprouting efficacy in combination with CIPC” value in the test with potatoes was “good result”.

The values are drawn from patent US20200236959A1, “METHOD FOR ANTI-SPROUTING TUBER TREATMENT WITH REDUCED AMOUNT OF CIPC” (priority 2014, published 2020).
